Data taken from US4451476A (priority 1983, dated 1984).
In brackets after ≈: the same amount, converted by molar mass. Entries after “also recorded” stand apart in the source; their conditions may differ.

Experiments:
[1] = system: human rhinovirus serotypes; assay type: cell-based
poliovirus [2] = assay type: in vivo, mice; conditions: parenteral medication
Polio-3 = assay: microbe, parasite or virus in culture; assay type: cell-based; conditions: read-out: MIC vs. Polio-3
polio-2 virus = assay: microbe, parasite or virus in culture; assay type: cell-based; conditions: read-out: MIC vs. polio-2 virus
poliovirus [3] = assay: animal or person; assay type: in vivo, mice
Echo-9 = assay: In vitro MIC against Echo-9; assay type: cell-based
Echo-11 = assay: microbe, parasite or virus in culture; assay type: cell-based; conditions: read-out: MIC vs. Echo-11
[4] = system: picornaviruses and enteroviruses; assay type: cell-based
rhinovirus Type 2 = assay: microbe, parasite or virus in culture; assay type: cell-based; conditions: for MIC: Enterovirus, read-out: MIC vs. rhinovirus Type 2 in vitro

| SMILES | MIC (rhinovirus Type 2) | other results |
| --- | --- | --- |
| COc1ccc(OCCCCCCCc2cc(C)no2)c(Cl)c1 [Example 2, 5-[7-(2-Chloro-4-methoxyphenoxy)heptyl]-3-methylisoxazole] |  | human rhinovirus serotypes against which active [1]: 24 of 27; most common human rhinovirus serotypes against which active [1]: six of the seven; challenge doses of poliovirus at which death was prevented (poliovirus [2]; mice): ≤ 200 LD50; prevention of death in mice infected with poliovirus (poliovirus [2]; challenge doses as high as 200 LD50): prevented death; MIC (Polio-3): 0.08 µg/mL (≈ 0.237 µM); MIC (polio-2 virus): 0.15 µg/mL (≈ 0.444 µM); minimal effective dose (poliovirus [3]; Enterovirus C, in Mus musculus, po, 336 h, read-out: minimal inhibitory dose): 31 mg/kg; in vivo activity against poliovirus infections in mice (poliovirus [3]): active in vivo; in vivo activity against poliovirus infections in mice (poliovirus [3]; listed as 5-[7-(2-chloro-4-methoxyphenoxy)heptyl]-3-methylisoxazole): in vivo activity against poliovirus infections in mice; MIC (Echo-9): 0.15 µg/mL (≈ 0.444 µM); MIC (Echo-11): 0.04 µg/mL (≈ 0.118 µM); in vitro activity against picornaviruses and enteroviruses [4]: in vitro activity against a variety of picornaviruses and enteroviruses; also recorded: active against other picornaviruses and enterviruses; times as active in vitro against rhinovirus Type 2 as the corresponding 2-chloro-4-methoxyphenoxy compounds of U.S. Pat. No. 4,268,678 (rhinovirus Type 2): at least 15 times |
| COc1ccc(OCCCCCCc2cc(C)no2)c(Cl)c1 [Example 3, 5-[6-(2-Chloro-4-methoxyphenoxy)hexyl]-3-methylisoxazole] | 0.8 µg/mL (≈ 2.47 µM) |  |
| COc1ccc(OCCCCCc2cc(C)no2)c(Cl)c1 [Example 4, 5-[5-(2-Chloro-4-methoxyphenoxy)pentyl]-3-methylisoxazole] | 0.4 µg/mL (≈ 1.29 µM) |  |
| Cc1cc(CCCCCCCOc2ccc(C#N)cc2)on1 [Example 5, 5-[7-(4-Cyanophenoxy)heptyl]-3-methylisoxazole] |  | activity vs. rhinovirus Type 2 in vitro (rhinovirus Type 2): inactive |
| Cc1cc(CCCCCCOc2ccc(C#N)cc2)on1 [Example 6, 5-[6-(4-Cyanophenoxy)hexyl]-3-methylisoxazole] | 3.1 µg/mL (≈ 10.9 µM) |  |
| Cc1cc(CCCCCOc2ccc(C#N)cc2)on1 [Example 7, 5-[5-(4-Cyanophenoxy)pentyl]-3-methylisoxazole] |  | activity vs. rhinovirus Type 2 in vitro (rhinovirus Type 2): inactive |
| Cc1cc(CCCCCCCOc2ccc(C(=O)OC(C)(C)C)cc2)on1 [Example 8, 5-[7-(4-Tertiary-butyloxycarbonylphenoxy)heptyl]-3-methylisoxazole] | 6.2 µg/mL (≈ 16.6 µM) |  |
| Cc1cc(CCCCCCCCOc2ccc(C#N)cc2)on1 [Example 10, 5-[8-(4-Cyanophenoxy)octyl]-3-methylisoxazole] |  | activity vs. rhinovirus Type 2 in vitro (rhinovirus Type 2): inactive |
| Cc1cc(CCCCCCCOc2ccc(OC(C)C)cc2)on1 [Example 11, 3-Methyl-5-[7-(4-isopropoxyphenoxy)heptyl]isoxazole] | 0.65 µg/mL (≈ 1.96 µM) |  |
| Cc1cc(CCCCCCCOc2ccc(C(C)C)cc2)on1 [Example 12, 3-Methyl-5-[7-(4-isopropylphenoxy)heptyl]isoxazole] | 0.98 µg/mL (≈ 3.11 µM) |  |
| Cc1cc(CCCCCCCOc2ccc(Cl)cc2)on1 [Example 14, 3-Methyl-5-[7-(4-chlorophenoxy)heptyl]isoxazole] | 1.5 µg/mL (≈ 4.87 µM) | MIC (polio-2 virus): 0.4 µg/mL (≈ 1.3 µM) |
| Cc1ccc(OCCCCCCCc2cc(C)no2)c(Cl)c1 [Example 15, 5-[7-(2-Chloro-4-methylphenoxy)heptyl]-3-methylisoxazole] | 1.2 µg/mL (≈ 3.73 µM) | MIC (polio-2 virus): 0.82 µg/mL (≈ 2.55 µM) |
| Cc1cc(CCCCCCCOc2ccc(C(=O)O)cc2)on1 [Example 16, 5-[7-(4-Carboxyphenoxy)heptyl]-3-methylisoxazole] | 10 µg/mL (≈ 31.5 µM) |  |
| Cc1cc(CCCCCOc2ccc(C(=O)O)cc2)on1 [Example 17, 5-[5-(4-Carboxyphenoxy)pentyl]-3-methylisoxazole] | 12.5 µg/mL (≈ 43.2 µM) |  |
| Cc1cc(CCCCCCCOc2cccc(C(=O)O)c2)on1 [Example 19, 5-[7-(3-Carboxyphenoxy)heptyl]-3-methylisoxazole] |  | activity vs. rhinovirus Type 2 in vitro (rhinovirus Type 2): inactive |
| Cc1cc(CCCCCCCCOc2ccc(C(=O)O)cc2)on1 [Example 20, 5-[8-(4-Carboxyphenoxy)octyl]-3-methylisoxazole] |  | activity vs. rhinovirus Type 2 in vitro (rhinovirus Type 2): inactive |
| CCOC(=O)c1ccc(OCCCCCCCc2cc(C)no2)cc1 [Example 22, 5-[7-(4-Ethoxycarbonylphenoxy)heptyl]-3-methylisoxazole] | 0.025 µg/mL (≈ 0.0724 µM) |  |
| CCOC(=O)c1ccc(OCCCCCc2cc(C)no2)cc1 [Example 23, 5-[5-(4-Ethoxycarbonylphenoxy)pentyl]-3-methylisoxazole] | 0.015 µg/mL (≈ 0.0473 µM) |  |

| SMILES | MIC (rhinovirus Type 2) | other results |
| --- | --- | --- |
| CCOC(=O)c1ccc(OCCCCCCc2cc(C)no2)cc1 [Example 24, 5-[6-(4-Ethoxycarbonylphenoxy)hexyl]-3-methylisoxazole] | 0.025 µg/mL (≈ 0.0754 µM) |  |
| CCOC(=O)c1ccc(OCCCCCCCCc2cc(C)no2)cc1 [Example 25, 5-[8-(4-Ethoxycarbonylphenoxy)octyl]-3-methylisoxazole] | 0.05 µg/mL (≈ 0.139 µM) |  |
| CCOC(=O)c1cccc(OCCCCCCCc2cc(C)no2)c1 [Example 26, 5-[7-(3-Ethoxycarbonylphenoxy)heptyl]-3-methylisoxazole] | 1.6 µg/mL (≈ 4.63 µM) |  |
| Cc1cc(CCCCCCCOc2ccc(C(=O)OC(C)C)cc2)on1 [Example 27, 5-[7-(4-Isopropyloxycarbonylphenoxy)heptyl]-3-methylisoxazole] | 0.23 µg/mL (≈ 0.64 µM) |  |
| CCCOC(=O)c1ccc(OCCCCCCCc2cc(C)no2)cc1 [Example 28, 5-[7-(4-Propyloxycarbonylphenoxy)heptyl]-3-methylisoxazole] | 0.07 µg/mL (≈ 0.195 µM) |  |
| COC(=O)c1ccc(OCCCCCCCc2cc(C)no2)cc1 [Example 29, 5-[7-(4-Methoxycarbonylphenoxy)heptyl]-3-methylisoxazole] | 3 µg/mL (≈ 9.05 µM) |  |
| CCOC(=O)c1ccc(OCCCCc2cc(C)no2)cc1 [Example 30, 5-[4-(4-Ethoxycarbonylphenoxy)butyl]-3-methylisoxazole] | 3.1 µg/mL (≈ 10.2 µM) |  |
| CC(=O)c1ccc(OCCCCCCCc2cc(C)no2)cc1 [Example 31, 5-[7-(4-Acetylphenoxy)heptyl]-3-methylisoxazole] | 1.6 µg/mL (≈ 5.07 µM) |  |
| CCC(=O)c1ccc(OCCCCCCCc2cc(C)no2)cc1 [Example 32, 5-[7-(4-Propionylphenoxy)heptyl]-3-methylisoxazole] | 1.7 µg/mL (≈ 5.16 µM) |  |
| Cc1cc(CCCCCCCOc2ccc(C(=O)NN)cc2)on1 [Example 33, 5-[7-(4-Hydrazinocarbonylphenoxy)heptyl]-3-methylisoxazole] | 0.64 µg/mL (≈ 1.93 µM) |  |
| Cc1cc(CCCCCCCOc2ccc(C(N)=O)cc2)on1 [Example 34, 5-[7-(4-Carbamylphenoxy)heptyl]-3-methylisoxazole] |  | activity vs. rhinovirus Type 2 in vitro (rhinovirus Type 2): not active |
| Cc1cc(CCCCCCCOc2ccc(C(=O)N(C)C)cc2)on1 [Example 35(b), N,N-dimethyl-4-[7-(3-methyl-5-isoxazolyl)heptyloxy]benzamide] |  | MIC (polio-2 virus): 2.5 µg/mL (≈ 7.26 µM) |
| CCC(=NO)c1ccc(OCCCCCCCc2cc(C)no2)cc1 [Example 36, 5-[7-(4-Propionylphenoxy)heptyl]-3-methylisoxazole oxime] | 2.6 µg/mL (≈ 7.55 µM) | MIC (polio-2 virus): 0.2 µg/mL (≈ 0.581 µM) |
| Cc1cc(CCCCCCCOc2ccc([N+](=O)[O-])cc2)on1 [Example 37(b), 3-methyl-5-[7-(4-nitrophenoxy)heptyl]isoxazole] |  | MIC (polio-2 virus): 1.5 µg/mL (≈ 4.71 µM) |
| COc1ccc(OCCCCCCCc2cc(C)no2)c([N+](=O)[O-])c1 [Example 38, 3-Methyl-5-[7-(2-nitro-4-methoxyphenoxy)heptyl]isoxazole] | 0.3 µg/mL (≈ 0.861 µM) | MIC (polio-2 virus): 0.17 µg/mL (≈ 0.488 µM) |
| Cc1cc(CCCCCCCc2ccc(C#N)cc2)on1 [Example 39(f), 5-[7-(4-Cyanophenyl)heptyl]-3-methylisoxazole] | 11.2 µg/mL (≈ 39.7 µM) |  |
| COc1ccc(OCCCCCc2cc(C)on2)c(Cl)c1 [Example 41, 3-[5-(2-Chloro-4-methoxyphenoxy)pentyl]-5-methylisoxazole] | 0.7 µg/mL (≈ 2.26 µM) | MIC (polio-2 virus): 1.4 µg/mL (≈ 4.52 µM) |
